Laboratory results as given in publication PMC8320996, “Negative regulation of melatonin secretion by melatonin receptors in ovine pinealocytes” (PLoS ONE, 2021).

Molecular target: T1, MT1
T1 construct: gene MTNR1A; native receptors in primary ovine pinealocytes (MT1 and MT2 not resolved)
Assay: saturation radioligand binding on primary ovine pinealocytes, Scatchard analysis
Assay type: cell-based, Ovis aries

Compound: COc1ccc2[nH]c(I)c(CCNC(C)=O)c2c1 [2-[^125I]-MLT]
- Kd: 2.24 ± 1.1 nM
